Assay results as given in the NIST ThermoML archive (doi:10.1016/j.jct.2009.07.013).
± gives the expanded uncertainty stated by the source.

Settings: Liquid, Vibrating tube method

CC(C)CCCC(C)CCCC(C)CCCCC(C)CCCC(C)CCCC(C)C (stereo unspecified) [2,6,10,15,19,23-hexamethyltetracosane]
mass density [kg/m3]
Settings | 298.15 K | 323.15 K | 348.15 K | 373.15 K | 398.15 K
100 kPa | 804.9 ± 0.2 | 789 ± 0.2 | 773 ± 0.2 | – | –
1000 kPa | 805.4 ± 0.2 | 789.6 ± 0.2 | 773.7 ± 0.2 | 758 ± 0.2 | 742.1 ± 0.2
5000 kPa | 807.8 ± 0.2 | 792.3 ± 0.2 | 776.7 ± 0.3 | 761.3 ± 0.3 | 745.9 ± 0.3
10000 kPa | 810.7 ± 0.3 | 795.5 ± 0.3 | 780.3 ± 0.3 | 765.3 ± 0.3 | 750.4 ± 0.3
15000 kPa | 813.4 ± 0.3 | 798.6 ± 0.3 | 783.7 ± 0.4 | 769.1 ± 0.4 | 754.6 ± 0.4
20000 kPa | 816.1 ± 0.4 | 801.5 ± 0.4 | 787 ± 0.4 | 772.7 ± 0.4 | 758.6 ± 0.4
30000 kPa | 821.2 ± 0.4 | 807.1 ± 0.5 | 793.2 ± 0.5 | 779.5 ± 0.5 | 766.1 ± 0.6
40000 kPa | 826 ± 0.5 | 812.3 ± 0.6 | 799 ± 0.6 | 785.8 ± 0.6 | 772.9 ± 0.7
45000 kPa | 828.3 ± 0.6 | 814.8 ± 0.6 | 801.7 ± 0.6 | 788.7 ± 0.7 | 776.1 ± 0.7
50000 kPa | 830.5 ± 0.6 | 817.2 ± 0.6 | 804.3 ± 0.7 | 791.6 ± 0.7 | 779.1 ± 0.7
60000 kPa | 834.8 ± 0.7 | 821.9 ± 0.7 | 809.3 ± 0.8 | 797.1 ± 0.8 | 785 ± 0.8

Cc1ccccc1 [toluene]
mass density [kg/m3]
Settings | 298.15 K | 323.15 K | 348.15 K | 373.15 K | 398.15 K
100 kPa | 862 ± 0.2 | 838.7 ± 0.2 | 814.6 ± 0.2 | – | –
1000 kPa | 862.7 ± 0.2 | 839.5 ± 0.2 | 815.6 ± 0.2 | 791.1 ± 0.2 | 765.3 ± 0.2
5000 kPa | 865.7 ± 0.2 | 843.1 ± 0.2 | 819.8 ± 0.2 | 796 ± 0.2 | 771.3 ± 0.3
10000 kPa | 869.4 ± 0.2 | 847.4 ± 0.2 | 824.7 ± 0.3 | 801.8 ± 0.3 | 778.3 ± 0.3
15000 kPa | 873 ± 0.3 | 851.5 ± 0.3 | 829.5 ± 0.3 | 807.3 ± 0.3 | 784.7 ± 0.4
20000 kPa | 876.4 ± 0.3 | 855.4 ± 0.3 | 834 ± 0.3 | 812.5 ± 0.4 | 790.8 ± 0.4
30000 kPa | 882.9 ± 0.3 | 862.7 ± 0.4 | 842.4 ± 0.4 | 822 ± 0.4 | 801.6 ± 0.5
40000 kPa | 889 ± 0.4 | 869.5 ± 0.4 | 850 ± 0.5 | 830.6 ± 0.5 | 811.2 ± 0.6
45000 kPa | 891.9 ± 0.4 | 872.7 ± 0.4 | 853.6 ± 0.5 | 834.6 ± 0.5 | 815.7 ± 0.6
50000 kPa | 894.7 ± 0.4 | 875.9 ± 0.5 | 857.1 ± 0.5 | 838.4 ± 0.6 | 819.9 ± 0.6
60000 kPa | 900.2 ± 0.4 | 881.9 ± 0.5 | 863.8 ± 0.6 | 845.8 ± 0.6 | 828 ± 0.7
